Consider 15 compounds from patent publication US12662489B2 (Sitryx Therapeutics Limited, priority 2023, dated 2026).

Molecules are shown by their SMILES. A value given as a limit tells only on which side of the number the result lay.

For test [1], the target named is T1, MTHFD1 recombinant human enzyme (Homo sapiens, UniProt P11586).
T1 sequence (P11586 2-291 limits assumed): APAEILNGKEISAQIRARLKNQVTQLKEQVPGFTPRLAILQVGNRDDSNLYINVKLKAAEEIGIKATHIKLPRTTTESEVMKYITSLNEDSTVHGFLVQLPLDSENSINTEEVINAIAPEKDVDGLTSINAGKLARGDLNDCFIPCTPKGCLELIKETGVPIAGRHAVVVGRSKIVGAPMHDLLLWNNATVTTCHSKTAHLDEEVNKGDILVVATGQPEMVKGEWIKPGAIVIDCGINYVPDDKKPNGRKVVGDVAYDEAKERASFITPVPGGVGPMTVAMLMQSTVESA
Put plainly: MTHFD1 inhibition assay (NAD(P)H-Glo luminescence). The conditions noted are these: MTHFD1 IC50, recombinant human enzyme 200 nM, NADP, band.

For test [2], the target named is T2, MTHFD2 recombinant human enzyme (Homo sapiens, UniProt P13995).
T2 sequence (P13995 36-350): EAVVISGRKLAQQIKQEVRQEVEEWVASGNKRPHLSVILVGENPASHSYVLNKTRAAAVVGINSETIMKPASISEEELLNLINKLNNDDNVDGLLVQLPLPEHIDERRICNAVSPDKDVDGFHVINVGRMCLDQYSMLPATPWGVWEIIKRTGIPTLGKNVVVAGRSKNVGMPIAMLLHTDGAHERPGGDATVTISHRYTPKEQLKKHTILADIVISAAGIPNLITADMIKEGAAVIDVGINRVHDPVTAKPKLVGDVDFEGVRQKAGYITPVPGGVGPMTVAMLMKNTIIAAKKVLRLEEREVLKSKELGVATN
The experiment in a line: MTHFD2 inhibition assay (NAD(P)H-Glo luminescence). Conditions: for MTHFD1/MTHFD2 IC50 ratio: selectivity of MTHFD2 inhibition over MTHFD1, band.

For the compound `COC[C@H]1CN(c2cc(C)c3c4c(c(=O)oc3c2C)CN(C(=O)c2cc(OC3CCCC3)c(C(=O)NS(=O)(=O)N(C)C)cc2F)CC4)CCN1C` [Example 110, (R)-2-(cyclopentyloxy)-N-(N,N-dimethylsulfamoyl)-5-fluoro-4-(8-(3-(methoxymethyl)-4-methylpiperazin-1-yl)-7,10-dimethyl-5-oxo-1,3,4,5-tetrahydro-2H-chromeno[3,4-c]pyridine-3-carbonyl)benzamide], the IC50 in test [1] was 0.01 to 0.1 µM. Further, in test [2], the IC50 is 0.01 to 0.1 µM and the “MTHFD1/MTHFD2 IC50 ratio” value is listed as “F (<3)”.
Take `COC[C@@H]1CN(c2ccc3c4c(c(=O)oc3c2C)CN(C(=O)c2ccc(C(=O)NS(=O)(=O)N3CCCC3)c(OC3CCC3)c2F)CC4)CCN1C` [Example 162, (S)-2-cyclobutoxy-3-fluoro-4-(8-(3-(methoxymethyl)-4-methylpiperazin-1-yl)-7-methyl-5-oxo-1,3,4,5-tetrahydro-2H-chromeno[3,4-c]pyridine-3-carbonyl)-N-(pyrrolidin-1-ylsulfonyl)benzamide]: the concentration for half-maximal inhibition (IC50) in test [1] and in test [2] was 0.1 to 1 µM throughout. Moreover, the “MTHFD1/MTHFD2 IC50 ratio” value in test [2] was “F (<3)”.
For `COC[C@H]1CN(c2cc(Cl)c3c4c(c(=O)oc3c2C)CN(C(=O)c2cc(N(C)C)c(C(=O)NS(=O)(=O)N3CCC[C@H]3C(F)(F)F)cc2F)CC4)CCN1C` [Example 295, 4-(10-chloro-8-((R)-3-(methoxymethyl)-4-methylpiperazin-1-yl)-7-methyl-5-oxo-1,3,4,5-tetrahydro-2H-chromeno[3,4-c]pyridine-3-carbonyl)-2-(dimethylamino)-5-fluoro-N-(((S)-2-(trifluoromethyl)pyrrolidin-1-yl)sulfonyl)benzamide], the IC50 in test [1] was in the range of 1 to 5 µM. For the same compound, in test [2], the IC50 fell in the range of 0.01 to 0.1 µM and the “MTHFD1/MTHFD2 IC50 ratio” value was “J (>30)”.
The corresponding values for `COC[C@H]1CN(c2cc(C)c3c4c(c(=O)oc3c2C)CN(C(=O)c2cc(C)c(C(=O)NS(=O)(=O)N(C)C)c(N3CCCC3)c2)CC4)CCN1C` [Example 106, (R)-N-(N,N-dimethylsulfamoyl)-4-(8-(3-(methoxymethyl)-4-methylpiperazin-1-yl)-7,10-dimethyl-5-oxo-1,3,4,5-tetrahydro-2H-chromeno[3,4-c]pyridine-3-carbonyl)-2-methyl-6-(pyrrolidin-1-yl)benzamide] are 0.1 to 1 µM, 0.01 to 0.1 µM and “H (>9.0 to 30)”.
On the same counts, the results for `COC[C@H]1CN(c2cc(Cl)c3c4c(c(=O)oc3c2C)CN(C(=O)c2cc(N(C)C)c(C(=O)NS(=O)(=O)N3CCC5(COC5)C3)cc2F)CC4)CCN1C` [Example 273, (R)-N-((2-oxa-6-azaspiro[3.4]octan-6-yl)sulfonyl)-4-(10-chloro-8-(3-(methoxymethyl)-4-methylpiperazin-1-yl)-7-methyl-5-oxo-1,3,4,5-tetrahydro-2H-chromeno[3,4-c]pyridine-3-carbonyl)-2-(dimethylamino)-5-fluorobenzamide] are 0.1 to 1 µM, 0.01 to 0.1 µM and “H (>9.0 to 30)”.
The corresponding values for `COC[C@H]1CN(c2cc(C)c3c4c(c(=O)oc3c2C)CN(C(=O)c2ccc(C(=O)NS(=O)(=O)N3CCCC3)c(N3CCC[C@@H]3C)c2)CC4)CCN1C` [Example 122, 4-(8-((R)-3-(methoxymethyl)-4-methylpiperazin-1-yl)-7,10-dimethyl-5-oxo-1,3,4,5-tetrahydro-2H-chromeno[3,4-c]pyridine-3-carbonyl)-2-((S)-2-methylpyrrolidin-1-yl)-N-(pyrrolidin-1-ylsulfonyl)benzamide] are 0.01 to 0.1 µM, 0.01 to 0.1 µM and “F (<3)”.
Regarding `COC[C@H]1CN(c2ccc3c4c(c(=O)oc3c2C)CN(C(=O)c2ccc(C(=O)NS(=O)(=O)C3(C)CC3)c(N(C)C)c2F)CC4)CCN1C` [Example 137, (R)-2-(dimethylamino)-3-fluoro-4-(8-(3-(methoxymethyl)-4-methylpiperazin-1-yl)-7-methyl-5-oxo-1,3,4,5-tetrahydro-2H-chromeno[3,4-c]pyridine-3-carbonyl)-N-((1-methylcyclopropyl)sulfonyl)benzamide], in test [1], the IC50 fell in the range of 0.1 to 1 µM. Also, in test [2], the IC50 lay within 0.01 to 0.1 µM and the “MTHFD1/MTHFD2 IC50 ratio” value is “G (^ 3 to 9.0)”.
In the case of `COC[C@H]1CN(c2ccc3c4c(c(=O)oc3c2)CN(C(=O)c2ccc(C(=O)NS(=O)(=O)N3CCCC3)c(OC3CCCC3)c2F)CC4)CCN1C` [Example 183, (R)-2-(cyclopentyloxy)-3-fluoro-4-(8-(3-(methoxymethyl)-4-methylpiperazin-1-yl)-5-oxo-1,3,4,5-tetrahydro-2H-chromeno[3,4-c]pyridine-3-carbonyl)-N-(pyrrolidin-1-ylsulfonyl)benzamide], in test [1], the IC50 is > 5 µM. For the same compound, in test [2], the IC50 was in the range of 0.1 to 1 µM and the “MTHFD1/MTHFD2 IC50 ratio” value was “H (>9.0 to 30)”.
On the same counts, the results for `COC[C@H]1CN(c2cc(Cl)c3c4c(c(=O)oc3c2C)CN(C(=O)c2ccc(C(=O)NS(=O)(=O)N3CC5CC5C3)c(OC)c2)CC4)CCN1C` (stereo partly drawn) [Example 280, N-((3-azabicyclo[3.1.0]hexan-3-yl)sulfonyl)-4-(10-chloro-8-((R)-3-(methoxymethyl)-4-methylpiperazin-1-yl)-7-methyl-5-oxo-1,3,4,5-tetrahydro-2H-chromeno[3,4-c]pyridine-3-carbonyl)-2-methoxybenzamide] are 0.1 to 1 µM, 0.01 to 0.1 µM and “H (>9.0 to 30)”.
On the same counts, the results for `COC[C@H]1CN(c2cc(C)c3c4c(c(=O)oc3c2C)CN(C(=O)c2cc(OC(C)C)c(C(=O)NS(=O)(=O)N3CCCC3)c(C(F)(F)F)c2)CC4)CCN1C` [Example 161, (R)-2-isopropoxy-4-(8-(3-(methoxymethyl)-4-methylpiperazin-1-yl)-7,10-dimethyl-5-oxo-1,3,4,5-tetrahydro-2H-chromeno[3,4-c]pyridine-3-carbonyl)-N-(pyrrolidin-1-ylsulfonyl)-6-(trifluoromethyl)benzamide] are 1 to 5 µM, 0.01 to 0.1 µM and “J (>30)”.
On the same counts, the results for `COC[C@H]1CN(c2cc(C)c3c4c(c(=O)oc3c2C)CN(C(=O)c2ccc(C(=O)NS(=O)(=O)N3CCCC3)c(OCC(F)(F)F)c2F)CC4)CCN1C` [Example 206, (R)-3-fluoro-4-(8-(3-(methoxymethyl)-4-methylpiperazin-1-yl)-7,10-dimethyl-5-oxo-1,3,4,5-tetrahydro-2H-chromeno[3,4-c]pyridine-3-carbonyl)-N-(pyrrolidin-1-ylsulfonyl)-2-(2,2,2-trifluoroethoxy)benzamide] are 0.01 to 0.1 µM, 0.01 to 0.1 µM and “F (<3)”.
Consider `COC[C@H]1CN(c2cc(Cl)c3c4c(c(=O)oc3c2C)CN(C(=O)c2ccc(C(=O)NS(=O)(=O)N3CCC[C@@H]3COC)c(OC)c2)CC4)CCN1C` [Example 288, 4-(10-chloro-8-((R)-3-(methoxymethyl)-4-methylpiperazin-1-yl)-7-methyl-5-oxo-1,3,4,5-tetrahydro-2H-chromeno[3,4-c]pyridine-3-carbonyl)-2-methoxy-N-(((R)-2-(methoxymethyl)pyrrolidin-1-yl)sulfonyl)benzamide], for which the IC50 in test [1] was in the range of 1 to 5 µM; in test [2] it was 0.01 to 0.1 µM. Also, the “MTHFD1/MTHFD2 IC50 ratio” value in test [2] is “J (>30)”.
In the case of `COC[C@H]1CN(c2cc(C)c3c4c(c(=O)oc3c2C)CN(C(=O)c2ccc(C(=O)NS(=O)(=O)N(C)C)c(N(C)C3CCC3)c2)CC4)CCN1C` [Example 55, (R)-2-(cyclobutyl(methyl)amino)-N-(N,N-dimethylsulfamoyl)-4-(8-(3-(methoxymethyl)-4-methylpiperazin-1-yl)-7,10-dimethyl-5-oxo-1,3,4,5-tetrahydro-2H-chromeno[3,4-c]pyridine-3-carbonyl)benzamide], the results for the IC50 in test [1] and in test [2] were 0.01 to 0.1 µM and 0.001 to 0.01 µM, respectively. Moreover, the “MTHFD1/MTHFD2 IC50 ratio” value in test [2] is on record as “G (^ 3 to 9.0)”.
For the compound `COC[C@H]1CN(c2ccc3c4c(c(=O)oc3c2C)CN(C(=O)c2ccc(C(=O)NS(=O)(=O)C3(C)CC3)c(OC3CCC3)c2F)CC4)CCN1C` [Example 42, (R)-2-cyclobutoxy-3-fluoro-4-(8-(3-(methoxymethyl)-4-methylpiperazin-1-yl)-7-methyl-5-oxo-1,3,4,5-tetrahydro-2H-chromeno[3,4-c]pyridine-3-carbonyl)-N-((1-methylcyclopropyl)sulfonyl)benzamide], the IC50 in test [1] and in test [2] was 0.001 to 0.01 µM throughout. In addition, in test [2], the “MTHFD1/MTHFD2 IC50 ratio” value is recorded as “G (^ 3 to 9.0)”.
With `COC[C@H]1CN(c2cc(C)c3c4c(c(=O)oc3c2C)CN(C(=O)c2ccc(C(=O)NS(=O)(=O)N(C)C)c(N3CCC(F)(F)C3)c2)CC4)CCN1C` [Example 82, (R)-2-(3,3-difluoropyrrolidin-1-yl)-N-(N,N-dimethylsulfamoyl)-4-(8-(3-(methoxymethyl)-4-methylpiperazin-1-yl)-7,10-dimethyl-5-oxo-1,3,4,5-tetrahydro-2H-chromeno[3,4-c]pyridine-3-carbonyl)benzamide], the figures for the IC50 in test [1] and in test [2] were 0.01 to 0.1 µM and 0.001 to 0.01 µM, respectively.

Usually IC50 stands for the concentration that gives 50% inhibition.
